Data published in patent publication US10590140B2, “Tetrahydropyrimidodiazepine and dihydropyridodiazepine compounds for treating pain and pain related conditions” (ESTEVE PHARMACEUTICALS, S.A., priority 2016, dated 2020).

Molecular target: human α2δ-1 subunit of Cav2.2 calcium channel (Homo sapiens (Human), UniProt P54289)
Assay: Binding assay to human α2δ-1 subunit of Cav2.2 calcium channel ([3H]-Gabapentin)
Details: binding to α2δ-1, [3H]-Gabapentin; read-out: Ki (nM) α2δ-1
Protocol: Binding Assay to Human α2δ-1 Subunit of Cav2.2 Calcium Channel.
NSB (non specific binding) was measured by adding 10 μM pregabalin. After 60 min incubation at 27° C., binding reaction was terminated by filtering through Multiscreen GF/C (Millipore) presoaked in 0.5% polyethyleneimine in Vacuum Manifold Station, followed by 3 washes with ice-cold filtration buffer containing 50 mM Tris-HCl, pH 7.4.
Filter plates were dried at 60° C. for 1 hour and 30 μl of scintillation cocktail were added to each well before radioactivity reading.

human α2δ-1 subunit of Cav2.2 calcium channel, sequence (P54289 25-1103): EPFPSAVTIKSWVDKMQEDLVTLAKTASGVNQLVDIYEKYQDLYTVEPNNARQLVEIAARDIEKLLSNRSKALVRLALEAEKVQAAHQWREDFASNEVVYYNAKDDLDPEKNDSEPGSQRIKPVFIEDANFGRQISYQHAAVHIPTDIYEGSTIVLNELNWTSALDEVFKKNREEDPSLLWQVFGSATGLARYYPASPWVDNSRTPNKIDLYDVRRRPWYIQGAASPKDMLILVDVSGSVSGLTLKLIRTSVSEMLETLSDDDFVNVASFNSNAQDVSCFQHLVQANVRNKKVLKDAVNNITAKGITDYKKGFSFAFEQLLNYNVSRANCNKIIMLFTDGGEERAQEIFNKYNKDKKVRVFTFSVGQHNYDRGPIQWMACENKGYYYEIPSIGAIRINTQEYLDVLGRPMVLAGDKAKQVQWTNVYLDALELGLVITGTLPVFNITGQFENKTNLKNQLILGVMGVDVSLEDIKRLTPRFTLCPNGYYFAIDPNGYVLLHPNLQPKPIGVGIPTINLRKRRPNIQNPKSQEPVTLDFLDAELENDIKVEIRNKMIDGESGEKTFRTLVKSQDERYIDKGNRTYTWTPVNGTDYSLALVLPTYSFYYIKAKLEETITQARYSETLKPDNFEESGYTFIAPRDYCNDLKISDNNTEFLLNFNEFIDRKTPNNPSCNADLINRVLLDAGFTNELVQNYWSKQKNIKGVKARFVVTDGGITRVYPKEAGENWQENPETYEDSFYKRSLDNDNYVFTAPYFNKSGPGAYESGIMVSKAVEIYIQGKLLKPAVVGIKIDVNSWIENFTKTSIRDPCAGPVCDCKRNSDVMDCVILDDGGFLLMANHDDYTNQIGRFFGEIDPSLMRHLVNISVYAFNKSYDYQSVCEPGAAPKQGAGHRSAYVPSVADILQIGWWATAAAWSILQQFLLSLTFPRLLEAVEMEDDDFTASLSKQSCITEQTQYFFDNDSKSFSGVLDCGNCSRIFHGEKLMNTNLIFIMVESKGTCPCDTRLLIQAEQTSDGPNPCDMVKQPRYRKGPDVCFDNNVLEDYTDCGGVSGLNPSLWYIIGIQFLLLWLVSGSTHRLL

Ki	SMILES
500 to 3000 nM	CNCCC(OCc1cccc(N2CCN(C)c3ccncc3C2=O)c1)c1ccccc1 (centres unmarked) [Example 317, 1-methyl-4-(3-((3-(methylamino)-1-phenylpropoxy)methyl)phenyl)-1,2,3,4-tetrahydro-5H-pyrido[4,3-e][1,4]diazepin-5-one]
500 to 3000 nM	CCNc1ncc2c(n1)N(C)CCN(c1cccc(OCCN3CCOCC3)c1)C2=O [Example 440, 2-(ethylamino)-9-methyl-6-(3-(2-morpholinoethoxy)phenyl)-6,7,8,9-tetrahydro-5H-pyrimido[4,5-e][1,4]diazepin-5-one]
100 to 500 nM	CNc1ncc2c(n1)N(C)CCN(c1cccc(-c3nnc(C)o3)c1)C2=O [Example 100, 9-methyl-6-(3-(5-methyl-1,3,4-oxadiazol-2-yl)phenyl)-2-(methylamino)-6,7,8,9-tetrahydro-5H-pyrimido[4,5-e][1,4]diazepin-5-one]
> 3000 nM	CNCC[C@H](OCc1cccc(N2CCN(C)c3nc(N)ncc3C2=O)c1)c1ccccc1 [Example 332, (S)-2-amino-9-methyl-6-(3-((3-(methylamino)-1-phenylpropoxy)methyl)phenyl)-6,7,8,9-tetrahydro-5H-pyrimido[4,5-e][1,4]diazepin-5-one]
100 to 500 nM	CCNc1ncc2c(n1)N(C)CCN(c1cccc(OCCNC)c1)C2=O [Example 170, 2-(ethylamino)-9-methyl-6-(3-(2-(methylamino)ethoxy)phenyl)-6,7,8,9-tetrahydro-5H-pyrimido[4,5-e][1,4]diazepin-5-one]
> 3000 nM	CSc1ncc2c(n1)N(C)CCN(c1cccc(CCN(C)C(=O)OC(C)(C)C)c1)C2=O [Example 24, tert-butyl methyl(3-(9-methyl-2-(methylthio)-5-oxo-5,7,8,9-tetrahydro-6H-pyrimido[4,5-e][1,4]diazepin-6-yl)phenethyl) carbamate]
> 3000 nM	CSc1ncc2c(n1)N(C)CCN(c1cccc(OC(CCN(C)C(=O)OC(C)(C)C)c3ccccc3)c1)C2=O (centres unmarked) [Example 1, tert-Butyl methyl(3-(3-(9-methyl-2-(methylthio)-5-oxo-5,7,8,9-tetrahydro-6H-pyrimido[4,5-e][1,4]diazepin-6-yl)phenoxy)-3-phenylpropyl) carbamate]
> 3000 nM	CSc1ncc2c(n1)N(C)CCN(c1cccc(O[C@H](CCN(C)C(=O)OC(C)(C)C)c3ccccc3)c1)C2=O [Example 2, tert-butyl (R)-methyl(3-(3-(9-methyl-2-(methylthio)-5-oxo-5,7,8,9-tetrahydro-6H-pyrimido[4,5-e][1,4]diazepin-6-yl)phenoxy)-3-phenylpropyl) carbamate]
500 to 3000 nM	CCNc1ncc2c(n1)N(C)CCN(c1cccc(CN3CCC(c4ccccc4)(N(C)C)CC3)c1)C2=O [Example 292, 6-(3-((4-(dimethylamino)-4-phenylpiperidin-1-yl)methyl)phenyl)-2-(ethylamino)-9-methyl-6,7,8,9-tetrahydro-5H-pyrimido[4,5-e] [1,4]diazepin-5-one]
500 to 3000 nM	CCNc1ncc2c(n1)N(C)CCN(c1cccc(-c3nnc(C)o3)c1)C2 [Example 66, N-ethyl-9-methyl-6-(3-(5-methyl-1,3,4-oxadiazol-2-yl)phenyl)-6,7,8,9-tetrahydro-5H-pyrimido[4,5-e][1,4]diazepin-2-amine]
> 3000 nM	CCNc1ncc2c(n1)N(C)CCN(c1cccc(-c3nnc(CN(C)C(=O)OC(C)(C)C)o3)c1)C2=O [Example 124, tert-butyl ((5-(3-(2-(ethylamino)-9-methyl-5-oxo-5,7,8,9-tetrahydro-6H-pyrimido[4,5-e][1,4]diazepin-6-yl)phenyl)-1,3,4-oxadiazol-2-yl)methyl)(methyl) carbamate]
> 3000 nM	CCNc1ncc2c(n1)N(C)CCN(Cc1ccc(CN(C)C(=O)OC(C)(C)C)cc1)C2=O [Example 137, tert-butyl (4-((2-(ethylamino)-9-methyl-5-oxo-5,7,8,9-tetrahydro-6H-pyrimido[4,5-e][1,4]diazepin-6-yl)methyl)benzyl) (methyl)carbamate]
500 to 3000 nM	CCNc1ncc2c(n1)N(C)CCN(c1cccc(OC(C)CN(C)CCc3ccccc3)c1)C2=O (centres unmarked) [Example 263, 2-(ethylamino)-9-methyl-6-(3-((1-(methyl(phenethyl)amino)propan-2-yl)oxy)phenyl)-6,7,8,9-tetrahydro-5H-pyrimido[4,5-e][1,4]diazepin-5-one]

The remaining lines, values behind:

SMILES	Ki
CCNc1ncc2c(n1)N(C)CCN(Cc1ccc(CNC)cc1)C2=O [Example 202, 2-(ethylamino)-9-methyl-6-(4-((methylamino)methyl)benzyl)-6,7,8,9-tetrahydro-5H-pyrimido[4,5-e][1,4]diazepin-5-one]	500 to 3000 nM
CCNc1ncc2c(n1)N(C)CCN(c1cccc(OC(CN(C)CCc3ccccc3)C(C)C)c1)C2=O (centres unmarked) [Example 268, 2-(ethylamino)-9-methyl-6-(3-((3-methyl-1-(methyl(phenethyl)amino)butan-2-yl)oxy)phenyl)-6,7,8,9-tetrahydro-5H-pyrimido[4,5-e][1,4]diazepin-5-one]	500 to 3000 nM
CSc1ncc2c(n1)N(C)CCN(c1cccc(OC(C)CN(C)C(=O)OC(C)(C)C)c1)C2=O (centres unmarked) [Example 6, tert-butyl methyl(2-(3-(9-methyl-2-(methylthio)-5-oxo-5,7,8,9-tetrahydro-6H-pyrimido[4,5-e][1,4]diazepin-6-yl)phenoxy)propyl) carbamate]	> 3000 nM
CSc1ncc2c(n1)N(C)CCN(c1cccc(C(C)(C)CN(C)C(=O)OC(C)(C)C)c1)C2=O [Example 25, tert-butyl methyl(2-methyl-2-(3-(9-methyl-2-(methylthio)-5-oxo-5,7,8,9-tetrahydro-6H-pyrimido[4,5-e][1,4]diazepin-6-yl)phenyl)propyl) carbamate]	> 3000 nM
CCNc1ncc2c(n1)N(C)CCN(c1cccc(C3CCN(Cc4ccccc4)CC3)c1)C2=O [Example 259, 6-(3-(1-benzylpiperidin-4-yl)phenyl)-2-(ethylamino)-9-methyl-6,7,8,9-tetrahydro-5H-pyrimido[4,5-e][1,4]diazepin-5-one]	100 to 500 nM
CSc1ncc2c(n1)N(C)CCN(Cc1cccc(OC(CN(C)C(=O)OC(C)(C)C)c3ccccc3)c1)C2=O (centres unmarked) [Example 62, tert-Butyl methyl(2-(3-((9-methyl-2-(methylthio)-5-oxo-5,7,8,9-tetrahydro-6H-pyrimido[4,5-e][1,4]diazepin-6-yl)methyl)phenoxy)-2-phenylethyl) carbamate]	> 3000 nM
CN(CC[C@@H](OCc1cccc(N2CCN(C)c3nc(N)ncc3C2=O)c1)c1ccccc1)C(=O)OC(C)(C)C [Example 130, tert-butyl (R)-(3-((3-(2-amino-9-methyl-5-oxo-5,7,8,9-tetrahydro-6H-pyrimido[4,5-e][1,4]diazepin-6-yl)benzyl)oxy)-3-phenylpropyl)(methyl) carbamate]	> 3000 nM
CCNc1ncc2c(n1)N(C)CCN(c1ccccc1OC(CCN(C)C(=O)OC(C)(C)C)c1ccccc1)C2=O (centres unmarked) [Example 125, tert-butyl (3-(2-(2-(ethylamino)-9-methyl-5-oxo-5,7,8,9-tetrahydro-6H-pyrimido[4,5-e][1,4]diazepin-6-yl)phenoxy)-3-phenylpropyl)(methyl) carbamate]	> 3000 nM
CCN1CCN(Cc2ccc(O[C@@H](CCNC)c3cccs3)cc2)C(=O)c2cnc(OC)nc21 [Example 395]	100 to 500 nM
CN(CCC(OCc1cccc(N2CCN(C)c3cc(Cl)ncc3C2=O)c1)c1ccccc1)C(=O)OC(C)(C)C (centres unmarked) [Example 300, tert-butyl (3-((3-(8-chloro-1-methyl-5-oxo-1,2,3,5-tetrahydro-4H-pyrido[4,3-e][1,4]diazepin-4-yl)benzyl)oxy)-3-phenylpropyl)(methyl) carbamate]	> 3000 nM
CCNc1ncc2c(n1)N(C)CCN(c1cccc(-n3cc(CN(CC4CC4)CC4CC4)nn3)c1)C2=O [Example 245, 6-(3-(4-((bis (cyclopropylmethyl)amino)methyl)-1H-1,2,3-triazol-1-yl)phenyl)-2-(ethylamino)-9-methyl-6,7,8,9-tetrahydro-5H-pyrimido[4,5-e][1,4]diazepin-5-one]	500 to 3000 nM
CN(CCC(Oc1cccc(N2CCN(C)c3cc(N(C)C)ncc3C2=O)c1)c1cccs1)C(=O)OCC[Si](C)(C)C (centres unmarked) [Example 59, 2-(trimethyl-silyl)ethyl (3-(3-(8-(dimethylamino)-1-methyl-5-oxo-1,2,3,5-tetrahydro-4H-pyrido[4,3-e] [1,4]diazepin-4-yl)phenoxy)-3-(thiophen-2-yl)propyl)(methyl) carbamate]	> 3000 nM
CCNc1ncc2c(n1)N(C)CCN(c1cccc(OC(CNC)C(C)C)c1)C2=O (centres unmarked) [Example 158, 2-(ethylamino)-9-methyl-6-(3-((3-methyl-1-(methylamino)butan-2-yl)oxy)phenyl)-6,7,8,9-tetrahydro-5H-pyrimido[4,5-e][1,4]diazepin-5-one]	500 to 3000 nM
CCNc1ncc2c(n1)N(C)CCN(c1cccc(N3CCC(c4ccccc4)(N(C)C)CC3)c1)C2=O [Example 312, 6-(3-(4-(dimethylamino)-4-phenylpiperidin-1-yl)phenyl)-2-(ethylamino)-9-methyl-6,7,8,9-tetrahydro-5H-pyrimido[4,5-e][1,4]diazepin-5-one]	500 to 3000 nM
Cc1nnc(-c2cccc(N3CCN(C)c4nc(NCC(C)C)ncc4C3=O)c2)o1 [Example 98, 2-(isobutylamino)-9-methyl-6-(3-(5-methyl-1,3,4-oxadiazol-2-yl)phenyl)-6,7,8,9-tetrahydro-5H-pyrimido[4,5-e][1,4]diazepin-5-one]	> 3000 nM
CCNc1ncc2c(n1)N(C)CCN(c1cccc(CCCNC)c1)C2=O [Example 171, 2-(ethylamino)-9-methyl-6-(3-(3-(methylamino)propyl)phenyl)-6,7,8,9-tetrahydro-5H-pyrimido[4,5-e][1,4]diazepin-5-one]	100 to 500 nM
